Each structure is given as a SMILES string. Calls of active or inactive are those of the source. The calls are words filed in the database; no cut-off is given here.

Experiment [1] relates to Hepatitis B virus. In words: Antiviral activity against hepatitis B viral in human HepG2(2.2.15) cells assessed as decrease in surface antigen HBsAg secretion at 25 ug/ml after 7 days. It is filed as functional. As to conditions: HepG2 2.2.15, 168 h.
In experiment [2] the test system is Hepatitis B virus. The experiment can be described thus: Antiviral activity against hepatitis B viral in human HepG2(2.2.15) cells assessed as decrease in surface antigen HBeAg secretion at 25 ug/ml after 7 days. Format: functional. As to conditions: HepG2 2.2.15, 168 h.
For another experiment, the system named is PC-12. The experiment can be described thus: Neuroprotective activity against serum-deprivation-induced neurotoxicity in rat PC12 cells assessed as cell viability at 10 uM after 48 hrs by MTT assay relative to control. It is filed as functional, cell-based.
The next experiment relates to Primary neuron. In words: Neuroprotective activity against serum-deprivation-induced neurotoxicity in rat primary cerebellar granule neuronal cells assessed as cell viability at 10 uM by MTT assay relative to control. Format: functional, cell-based.
Experiment [3] is described as follows: Antifibrotic activity in […] cells assessed as inhibition of acetaldehyde-stimulated cell growth at 50 uM/L. It is filed as functional.

Usually inhibition stands for the percentage by which the read-out fell short of the control. On to `Nc1ccn([C@@H]2CS[C@H](CO)O2)c(=O)n1` [LAMIVUDINE], for which the inhibition at 25 µg/mL in the experiment with Hepatitis B virus [1] is 10%; in the experiment with Hepatitis B virus [2], 46%.
`O=c1oc2cc3c(cc2cc1[C@@H](CO)Cc1ccc2c(c1)OCO2)OCO3`: the inhibition at 25 µg/mL in the experiment with Hepatitis B virus [1] turned out to be 57%; in the experiment with Hepatitis B virus [2], 48%. Also, the result in the experiment on PC-12 and in the experiment on Primary neuron was Active. The inhibition at 50 µM in experiment [3] turned out to be 71%.

Values taken from ChEMBL document CHEMBL3397038, “A coumarin lignanoid from the stems of Kadsura heteroclita” (2015).
